# Tests used:
# [1] = molecular target: T1, human androgen receptor (Homo sapiens, UniProt P10275, T878A); test: Human Androgen Receptor Binding (radioligand binding, LnCap prostate cancer cell line); details: LnCap cells, displacement of [^3H]-methyltrienolone, 2 hours at 37° C.; read-out: AR LNCaP
# T1 construct: endogenously expressed human androgen receptor using the LnCap prostate cancer cell line; endogenous in cells; host or cells: LNCaP prostate cancer cell line (whole cells)
# T1 sequence (P10275 1-920 T878A): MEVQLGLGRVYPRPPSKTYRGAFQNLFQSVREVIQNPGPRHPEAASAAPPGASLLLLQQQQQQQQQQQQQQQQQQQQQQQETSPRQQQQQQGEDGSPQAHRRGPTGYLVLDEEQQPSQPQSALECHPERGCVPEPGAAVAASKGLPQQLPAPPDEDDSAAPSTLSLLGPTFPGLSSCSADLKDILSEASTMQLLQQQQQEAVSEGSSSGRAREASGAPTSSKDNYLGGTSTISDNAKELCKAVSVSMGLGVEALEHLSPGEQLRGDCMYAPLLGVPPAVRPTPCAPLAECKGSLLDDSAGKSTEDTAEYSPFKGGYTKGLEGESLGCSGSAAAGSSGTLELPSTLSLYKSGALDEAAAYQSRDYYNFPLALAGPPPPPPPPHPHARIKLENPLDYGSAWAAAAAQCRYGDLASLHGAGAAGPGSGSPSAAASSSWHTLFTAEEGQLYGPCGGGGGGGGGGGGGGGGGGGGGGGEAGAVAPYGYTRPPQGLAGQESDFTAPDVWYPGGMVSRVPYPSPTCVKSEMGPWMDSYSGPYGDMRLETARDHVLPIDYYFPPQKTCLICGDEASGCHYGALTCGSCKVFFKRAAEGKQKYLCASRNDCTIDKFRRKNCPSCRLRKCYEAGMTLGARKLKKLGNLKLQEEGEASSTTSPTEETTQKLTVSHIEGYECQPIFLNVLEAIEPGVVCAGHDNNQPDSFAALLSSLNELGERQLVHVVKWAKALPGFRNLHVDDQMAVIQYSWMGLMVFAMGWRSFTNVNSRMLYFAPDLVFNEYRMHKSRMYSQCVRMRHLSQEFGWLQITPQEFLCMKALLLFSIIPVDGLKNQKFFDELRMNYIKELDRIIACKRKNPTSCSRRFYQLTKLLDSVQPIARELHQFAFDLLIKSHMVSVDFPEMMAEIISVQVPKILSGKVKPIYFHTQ
# In short: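 Whole-cell displacement of [3H]-methyltrienolone from endogenous AR (T878A) in LnCap cells, in RPMI with 0.1% BSA and triamcinolone acetonide. Compounds 10 μM to 0.1 nM in 1:10 steps, 2 h at 37 °C; cells washed, SDS-lysed, bound radioactivity by scintillation counting for IC50.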
# [2] = molecular target: T2, Human Glucocorticoid Receptor (Homo sapiens, UniProt P04150); test: Competition Binding in IM-9 Human Glucocorticoid Receptor (GR IM-9); details: cytosol from IM-9 cell line, 1.5 nM [3H]-Dexamethasone, 4° C. for 6 hours
# T2 construct: endogenous in cells; host or cells: cytosol from IM-9 cell line
# T2 sequence (P04150 1-777): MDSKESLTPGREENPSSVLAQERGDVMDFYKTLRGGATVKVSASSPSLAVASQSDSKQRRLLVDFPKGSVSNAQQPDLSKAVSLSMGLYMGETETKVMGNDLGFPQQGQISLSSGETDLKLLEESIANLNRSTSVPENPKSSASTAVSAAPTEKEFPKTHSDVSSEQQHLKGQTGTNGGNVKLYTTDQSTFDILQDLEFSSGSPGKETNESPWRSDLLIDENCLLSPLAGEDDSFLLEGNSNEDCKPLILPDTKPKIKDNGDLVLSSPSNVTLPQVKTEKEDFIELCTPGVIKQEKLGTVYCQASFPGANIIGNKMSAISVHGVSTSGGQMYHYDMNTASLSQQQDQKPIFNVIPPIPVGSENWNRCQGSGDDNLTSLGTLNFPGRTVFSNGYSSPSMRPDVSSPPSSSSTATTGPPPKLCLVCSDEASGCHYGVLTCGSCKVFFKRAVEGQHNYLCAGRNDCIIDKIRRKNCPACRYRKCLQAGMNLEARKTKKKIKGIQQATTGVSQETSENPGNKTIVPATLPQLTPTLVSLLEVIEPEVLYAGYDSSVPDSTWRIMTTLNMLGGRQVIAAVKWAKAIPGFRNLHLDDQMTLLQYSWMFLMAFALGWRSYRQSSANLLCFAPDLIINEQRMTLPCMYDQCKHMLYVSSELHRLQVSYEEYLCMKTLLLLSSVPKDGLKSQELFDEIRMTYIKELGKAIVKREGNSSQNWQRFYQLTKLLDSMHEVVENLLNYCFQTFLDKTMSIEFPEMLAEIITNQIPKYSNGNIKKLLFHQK
# In short: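 Radioligand competition using 100 μg IM-9 cell cytosol and 1.5 nM [3H]-dexamethasone, incubated 6 h at 4° C in TES/molybdate buffer, pH 7.4. Filtration on PEI-treated GF/B filters, scintillation counting; nonspecific binding defined with 10 μM triamcinolone.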
SMILES,IC50 [1] [nM],IC50 [2] [nM]
"CC(=O)C1=C(C)NC(C)=C(C(=O)OCc2ccc(Br)cc2)C1c1csc2ncccc12 (centres unmarked) [Example C65, 4-bromobenzyl 5-acetyl-2,6-dimethyl-4-(thieno[2,3-b]pyridin-3-yl)-1,4-dihydropyridine-3-carboxylate]",≥ 1000,< 100
"CC(=O)C1=C(C)NC(C)=C(C(=O)OCC2CCOCC2)C1c1csc2ccc(Cl)cc12 (centres unmarked) [Example C43, (Tetrahydro-2H-pyran-4-yl)methyl 5-acetyl-4-(5-chlorobenzo[b]thiophen-3-yl)-2,6-dimethyl-1,4-dihydropyridine-3-carboxylate]",≥ 1000,100 to 1000
"CC(=O)C1=C(C)NC(C)=C(C(=O)OCc2ccccc2)C1c1csc2ncccc12 (centres unmarked) [Example C39, Benzyl 5-acetyl-2,6-dimethyl-4-(thieno[2,3-b]pyridin-3-yl)-1,4-dihydropyridine-3-carboxylate]",100 to 1000,< 100
"CC(=O)C1=C(C)NC(C)=C(C(=O)OCc2cccnc2)C1c1csc2c(Br)cccc12 (centres unmarked) [Example C58, Pyridin-3-ylmethyl 5-acetyl-4-(7-bromobenzo[b]thiophen-3-yl)-2,6-dimethyl-1,4-dihydropyridine-3-carboxylate]",< 100,< 100
"CC(=O)C1=C(C)NC(N)=C(C(=O)OCC2CCCCC2)C1c1csc2c(C#N)cccc12 (centres unmarked) [Example D30, Cyclohexylmethyl 5-acetyl-2-amino-4-(7-cyanobenzo[b]thiophen-3-yl)-6-methyl-1,4-dihydropyridine-3-carboxylate]",100 to 1000,< 100
"CC(=O)C1=C(C)NC(N)=C(C(=O)OCc2cccc(F)c2)C1c1csc2c(C#N)cccc12 (centres unmarked) [Example D32, 3-Fluorobenzyl 5-acetyl-2-amino-4-(7-cyanobenzo[b]thiophen-3-yl)-6-methyl-1,4-dihydropyridine-3-carboxylate]",100 to 1000,< 100
"CC(=O)C1=C(C)NC(C)=C(C(=O)OC(C)(C)c2ccccc2)C1c1csc2ncccc12 (centres unmarked) [Example C71, 2-phenylpropan-2-yl 5-acetyl-2,6-dimethyl-4-(thieno[2,3-b]pyridin-3-yl)-1,4-dihydropyridine-3-carboxylate]",≥ 1000,< 100
"CC(=O)C1=C(C)NC(C)=C(C(=O)OCc2ccccc2)C1c1csc2ccc(F)cc12 (centres unmarked) [Example C41, Benzyl 5-acetyl-4-(5-fluorobenzo[b]thiophen-3-yl)-2,6-dimethyl-1,4-dihydropyridine-3-carboxylate]",≥ 1000,100 to 1000
"CC(=O)C1=C(C)NC(C)=C(C(=O)OCc2cccc(-c3ccncc3)c2)C1c1csc2ncccc12 (centres unmarked) [Example L3, 3-(pyridin-4-yl)benzyl 5-acetyl-2,6-dimethyl-4-(thieno[2,3-b]pyridin-3-yl)-1,4-dihydropyridine-3-carboxylate]",< 100,< 100
"CC(=O)C1=C(C)NC(C)=C(C(=O)OCc2ccncc2)C1c1csc2ccc(F)cc12 (centres unmarked) [Example C46, Pyridin-4-ylmethyl 5-acetyl-4-(5-fluorobenzo[b]thiophen-3-yl)-2,6-dimethyl-1,4-dihydropyridine-3-carboxylate]",100 to 1000,< 100
"CC(=O)C1=C(C)NC(C)=C(C(=O)OCc2cccc(C#N)c2)C1c1csc2ncccc12 (centres unmarked) [Example C72, 3-Cyanobenzyl 5-acetyl-2,6-dimethyl-4-(thieno[2,3-b]pyridin-3-yl)-1,4-dihydropyridine-3-carboxylate]",≥ 1000,< 100
"COC(=O)C1=C(C=O)NC(C2CC2)=C(C(=O)OC)C1c1csc2c(C#N)cccc12 (centres unmarked) [Example C117, Dimethyl 4-(7-cyanobenzo[b]thiophen-3-yl)-2-cyclopropyl-6-formyl-1,4-dihydropyridine-3,5-dicarboxylate]",100 to 1000,< 100
"COC(=O)C1=C(C)NC(N)=C(C(=O)OCC(C)(C)C)C1c1csc2c(C#N)cccc12 (centres unmarked) [Example D43, 5-Methyl 3-neopentyl 2-amino-4-(7-cyanobenzo[b]thiophen-3-yl)-6-methyl-1,4-dihydropyridine-3,5-dicarboxylate]",100 to 1000,< 100
"CC(=O)C1=C(C)NC(C)=C(C(=O)OC2CCCCC2)C1c1csc2ncccc12 (centres unmarked) [Example C36, Cyclohexyl 5-acetyl-2,6-dimethyl-4-(thieno[2,3-b]pyridin-3-yl)-1,4-dihydropyridine-3-carboxylate]",100 to 1000,< 100
"COC(=O)C1=C(C)NC(N)=C(C(=O)OCC2CC2)C1c1csc2c(C#N)cc(F)cc12 (centres unmarked) [Example D39, 3-(Cyclopropylmethyl) 5-methyl 2-amino-4-(7-cyano-5-fluorobenzo[b]thiophen-3-yl)-6-methyl-1,4-dihydropyridine-3,5-dicarboxylate]",100 to 1000,< 100
"CC(=O)C1=C(C)NC(C)=C(C(=O)OCc2ccccc2)C1c1csc2ccc(Cl)cc12 (centres unmarked) [Example C42, Benzyl 5-acetyl-4-(5-chlorobenzo[b]thiophen-3-yl)-2,6-dimethyl-1,4-dihydropyridine-3-carboxylate]",≥ 1000,< 100
"COC(=O)C1=C(C)NC(N)=C(C(=O)OC(C)C)C1c1csc2c(C#N)cccc12 (centres unmarked) [Example D41, 3-Isopropyl 5-methyl 2-amino-4-(7-cyanobenzo[b]thiophen-3-yl)-6-methyl-1,4-dihydropyridine-3,5-dicarboxylate]",100 to 1000,< 100
"CC(=O)C1=C(C)NC(C)=C(C(=O)OCC2CC2)C1c1csc2ncccc12 (centres unmarked) [Example C24, Cyclopropylmethyl 5-acetyl-2,6-dimethyl-4-(thieno[2,3-b]pyridin-3-yl)-1,4-dihydropyridine-3-carboxylate]",< 100,< 100
"CC(=O)C1=C(C)NC(C)=C(C(=O)OCc2cccc(-c3cccnc3)c2)C1c1csc2ncccc12 (centres unmarked) [Example L4, 3-(pyridin-3-yl)benzyl 5-acetyl-2,6-dimethyl-4-(thieno[2,3-b]pyridin-3-yl)-1,4-dihydropyridine-3-carboxylate]",< 100,< 100
"CC(=O)C1=C(C)NC(C)=C(C(=O)OCc2ccccc2Br)C1c1csc2ncccc12 (centres unmarked) [Example C67, 2-bromobenzyl 5-acetyl-2,6-dimethyl-4-(thieno[2,3-b]pyridin-3-yl)-1,4-dihydropyridine-3-carboxylate]",< 100,< 100
"CC(=O)C1=C(C)NC(C)=C(C(=O)OCc2ccc(-c3ccncc3)cc2)C1c1csc2ncccc12 (centres unmarked) [Example L1, 4-(pyridin-4-yl)benzyl 5-acetyl-2,6-dimethyl-4-(thieno[2,3-b]pyridin-3-yl)-1,4 dihydropyridine-3-carboxylate]",≥ 1000,< 100
"CC(=O)C1=C(C)NC(C)=C(C(=O)OCc2cccnc2)C1c1csc2ccccc12 (centres unmarked) [Example C48, Pyridin-3-ylmethyl 5-acetyl-4-(benzo[b]thiophen-3-yl)-2,6-dimethyl-1,4-dihydropyridine-3-carboxylate]",≥ 1000,100 to 1000
